According to ChEMBL document CHEMBL3351832, “Design and synthesis of lactam-thiophene carboxylic acids as potent hepatitis C virus polymerase inhibitors” (Bioorg Med Chem Lett, 2014):
pEC50, pIC50: −log10 of the molar value.

Key:
[1] = Inhibition of purified Hepatitis C virus NS5B; design: species or system Hepacivirus hominis
Hepatitis C virus [2] = test: Antiviral activity against Hepatitis C virus genotype 1b by cell-based replicon assay; format: functional, Hepacivirus hominis
[3] = Clearance in beagle dog at 0.3 mg/kg, iv; format: ADME, organism-based, Canis lupus familiaris; design: dose 0.3 mg/kg, route intravenous; details: in vivo
[4] = Volume of distribution at steady state in Sprague-Dawley rat at 1 mg/kg, iv; format: ADME, organism-based; design: dose 1 mg/kg, route intravenous; details: in vivo, read-out: Vdss
[5] = AUC in Sprague-Dawley rat at 1 mg/kg, iv; format: ADME, organism-based; design: dose 1 mg/kg, route intravenous; details: plasma
[6] = Clearance in Sprague-Dawley rat at 1 mg/kg, iv; format: ADME, organism-based; design: dose 1 mg/kg, route intravenous; details: in vivo
[7] = Oral bioavailability in beagle dog at 3 mg/kg; format: ADME, organism-based, Canis lupus familiaris; details: in vivo
[8] = Half life in Sprague-Dawley rat at 1 mg/kg, iv; format: ADME, organism-based; design: dose 1 mg/kg, route intravenous; details: in vivo
[9] = Oral bioavailability in Sprague-Dawley rat at 5 mg/kg; format: ADME, organism-based; details: in vivo
[10] = AUC in beagle dog at 0.3 mg/kg, iv; format: ADME, organism-based, Canis lupus familiaris; design: dose 0.3 mg/kg, route intravenous; details: plasma
[11] = Half life in beagle dog at 0.3 mg/kg, iv; format: ADME, organism-based, Canis lupus familiaris; design: dose 0.3 mg/kg, route intravenous; details: in vivo
[12] = Volume of distribution at steady state in beagle dog at 0.3 mg/kg, iv; format: ADME, organism-based, Canis lupus familiaris; design: dose 0.3 mg/kg, route intravenous; details: in vivo, read-out: Vdss
[13] = target: T1, Nuclear receptor subfamily 1 group I member 2 (Homo sapiens, UniProt O75469); test: Activation of PXR (unknown origin) at 10 uM by reporter gene assay relative to rifampicin; format: ADME
T1 sequence (O75469 whole entry): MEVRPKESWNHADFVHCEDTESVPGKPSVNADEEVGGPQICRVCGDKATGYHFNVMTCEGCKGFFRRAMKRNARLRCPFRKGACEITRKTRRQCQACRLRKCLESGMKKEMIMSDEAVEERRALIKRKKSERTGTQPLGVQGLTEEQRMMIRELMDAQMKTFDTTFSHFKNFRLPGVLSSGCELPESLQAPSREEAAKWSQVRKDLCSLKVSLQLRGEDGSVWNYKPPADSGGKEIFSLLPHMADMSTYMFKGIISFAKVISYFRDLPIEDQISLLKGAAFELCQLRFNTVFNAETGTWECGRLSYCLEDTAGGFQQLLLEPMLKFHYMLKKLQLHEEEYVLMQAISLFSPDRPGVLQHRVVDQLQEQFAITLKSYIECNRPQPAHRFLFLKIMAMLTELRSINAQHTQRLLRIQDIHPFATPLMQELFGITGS

[14] = AUC in Sprague-Dawley rat at 5 mg/kg, po; format: ADME, organism-based; design: dose 5 mg/kg, route oral; details: plasma
[15] = AUC in beagle dog at 3 mg/kg, po; format: ADME, organism-based, Canis lupus familiaris; design: dose 3 mg/kg, route oral; details: plasma
Cytochrome P450 3A4 = Cytochrome P450 3A4 (Homo sapiens, UniProt P08684); test: Increase in CYP3A4-mediated testosterone metabolism in human hepatocytes at 10 uM relative to rifampicin; format: ADME, cell-based, Hepatocyte
Hepatocyte = test: Increase in CYP3A4 mRNA expression in human hepatocytes at 10 uM relative to rifampicin; format: ADME, cell-based
Hepatitis C virus [16] = test: Antiviral activity against Hepatitis C virus genotype 1b by cell-based replicon assay in presence of 40 % human serum
Hepatitis C virus [17] = test: Antiviral activity against Hepatitis C virus genotype 1a by cell-based replicon assay; details: subtype 1a

Sequence of Cytochrome P450 3A4 (P08684 whole entry): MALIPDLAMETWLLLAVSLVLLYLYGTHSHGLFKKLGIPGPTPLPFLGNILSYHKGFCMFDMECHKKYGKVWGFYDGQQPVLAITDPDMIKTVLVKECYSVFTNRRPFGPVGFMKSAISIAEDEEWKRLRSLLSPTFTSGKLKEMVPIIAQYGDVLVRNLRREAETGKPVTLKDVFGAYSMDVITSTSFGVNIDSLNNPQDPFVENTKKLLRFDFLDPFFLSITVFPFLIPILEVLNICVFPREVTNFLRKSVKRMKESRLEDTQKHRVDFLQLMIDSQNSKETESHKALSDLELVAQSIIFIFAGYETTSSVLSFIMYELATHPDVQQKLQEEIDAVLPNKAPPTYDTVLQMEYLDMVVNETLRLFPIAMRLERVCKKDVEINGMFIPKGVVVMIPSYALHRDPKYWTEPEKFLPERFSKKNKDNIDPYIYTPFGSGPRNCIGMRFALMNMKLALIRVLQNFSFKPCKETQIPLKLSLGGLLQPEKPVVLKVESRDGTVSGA

Question: With O=C(O)c1sc(-c2ccccc2)cc1N1C(=O)CCC1C1CCCCC1 (configuration not stated) as the compound, how does the pIC50 [1] read?
Answer: 6.74

Question: What about the pEC50 (Hepatitis C virus [2]) of the same compound?
Answer: 6.19

Question: Which results are given for CC(C)(C)C#Cc1cc(N2C(=O)[C@H](CCCO)OC[C@H]2C2CCCCC2)c(C(=O)O)s1?
Answer: pIC50 [1]: 7.46; pEC50 (Hepatitis C virus [2]): 7.08

Question: What does the source list for CC(C)(C)C#Cc1cc(N2C(=O)[C@@H](CCO)OC[C@H]2C2CCCCC2)c(C(=O)O)s1 (relative stereo)?
Answer: clearance [3]: 5.6 mL/min/kg; Vd [4]: 2.1 L/kg; AUC [5]: 1.42 µM·h; pIC50 [1]: 8.70; clearance [6]: 27 mL/min/kg; bioavailability [7]: 27%; half-life [8]: 2 h; bioavailability [9]: 48%; AUC [10]: 2.08 µM·h; half-life [11]: 3.8 h; Vd [12]: 0.3 L/kg; Activity [13]: 3%; pEC50 (Hepatitis C virus [2]): 8.15; AUC [14]: 3.37 µM·h; AUC [15]: 5.68 µM·h; Activity (Cytochrome P450 3A4): 5%

Question: With Cc1ccc(C2CCCCC2)n1-c1cc(-c2ccccc2)sc1C(=O)O as the compound, how does the pIC50 [1] read?
Answer: 4.98

Question: What about the pEC50 (Hepatitis C virus [2]) of the same compound?
Answer: < 4.48

Question: With CC(C)(C)C#Cc1cc(N2C(=O)COC[C@H]2C2CCCCC2)c(C(=O)O)s1 as the compound, how does the pIC50 [1] read?
Answer: 8.52

Question: What about the Activity (Hepatocyte) of the same compound?
Answer: 66%

Question: And the Activity [13]?
Answer: 87%

Question: And the pEC50 (Hepatitis C virus [2])?
Answer: 7.77

Question: And the Activity (Cytochrome P450 3A4)?
Answer: 61%

Question: With CC(C)(C)C#Cc1cc(N2C(=O)[C@@](C)(CCCO)OC[C@H]2C2CCCCC2)c(C(=O)O)s1 (relative stereo) as the compound, how does the pIC50 [1] read?
Answer: 8.70

Question: What about the Activity [13] of the same compound?
Answer: 34%

Question: What about the pEC50 (Hepatitis C virus [2]) of the same compound?
Answer: 7.96

Question: Which results are given for O=C(O)c1sc(-c2ccccc2)cc1N1C(=O)CCCC1c1ccccc1 (configuration not stated)?
Answer: pIC50 [1]: 6.06; pEC50 (Hepatitis C virus [2]): 5.24

Question: With CC(C)(C)C#Cc1cc(N2C(=O)[C@H](CCO)OC[C@H]2C2CCCCC2)c(C(=O)O)s1 (relative stereo) as the compound, how does the pIC50 [1] read?
Answer: 7.92

Question: And the pEC50 (Hepatitis C virus [2])?
Answer: 7.18

Question: Which results are given for CC(C)(C)C#Cc1cc(N2C(=O)[C@](C)(CCO)OC[C@H]2C2CCCCC2)c(C(=O)O)s1 (relative stereo)?
Answer: pIC50 [1]: 8.22; Activity [13]: 29%; pEC50 (Hepatitis C virus [2]): 7.70

Question: With O=C(O)c1sc(-c2ccccc2)cc1N1C(=O)CCCC1C1CCCCC1 (configuration not stated) as the compound, how does the pIC50 [1] read?
Answer: 7.14

Question: And the pEC50 (Hepatitis C virus [2])?
Answer: 6.48

Question: With O=C(O)c1sc(-c2ccccc2)cc1N1C(=O)CCCC1C1CCCC1 (configuration not stated) as the compound, how does the pIC50 [1] read?
Answer: 6.14

Question: And the pEC50 (Hepatitis C virus [2])?
Answer: 5.43

Question: With O=C(O)c1sc(-c2ccccc2)cc1N1C(=O)CC[C@H]1C1CCCCC1 as the compound, how does the pIC50 [1] read?
Answer: 6.92

Question: What about the pEC50 (Hepatitis C virus [2]) of the same compound?
Answer: 6.41

Question: With Cc1ccc([C@H]2CC[C@H](C)CC2)n1-c1cc(-c2ccccc2)sc1C(=O)O as the compound, how does the pIC50 [1] read?
Answer: 5.82

Question: What about the pEC50 (Hepatitis C virus [2]) of the same compound?
Answer: < 4.48

Question: With O=C(O)c1sc(-c2ccccc2)cc1N1C(=O)CCCC1C1CCOCC1 (configuration not stated) as the compound, how does the pIC50 [1] read?
Answer: < 5.00

Question: What about the pEC50 (Hepatitis C virus [2]) of the same compound?
Answer: < 4.48

Question: Which results are given for O=C(O)c1sc(-c2ccccc2)cc1N1C(=O)CC[C@@H]1C1CCCCC1?
Answer: pIC50 [1]: < 5.00; pEC50 (Hepatitis C virus [2]): < 4.48

Question: With CC(C)N(c1cc(-c2ccccc2)sc1C(=O)O)C(=O)[C@H]1CC[C@H](C)CC1 as the compound, how does the pIC50 [1] read?
Answer: 7.22

Question: And the pEC50 (Hepatitis C virus [2])?
Answer: 6.57

Question: Which results are given for CC(C)(C)C#Cc1cc(N2C(=O)C(C)(C)OC[C@H]2C2CCCCC2)c(C(=O)O)s1?
Answer: pIC50 [1]: 8.70; Activity [13]: 145%; pEC50 (Hepatitis C virus [2]): 8.30

Question: With CC(C)(C)C#Cc1cc(N2C(=O)[C@@H](CCCO)OC[C@H]2C2CCCCC2)c(C(=O)O)s1 (relative stereo) as the compound, how does the clearance [3] read?
Answer: 5.4 mL/min/kg

Question: What about the Vd [4] of the same compound?
Answer: 1.2 L/kg

Question: And the AUC [5]?
Answer: 0.984 µM·h

Question: What about the pIC50 [1] of the same compound?
Answer: 8.70

Question: And the clearance [6]?
Answer: 38 mL/min/kg

Question: And the bioavailability [7]?
Answer: 12%

Question: What about the half-life [8] of the same compound?
Answer: 1.1 h

Question: And the bioavailability [9]?
Answer: 43%

Question: And the AUC [10]?
Answer: 2.34 µM·h

Question: What about the half-life [11] of the same compound?
Answer: 2.4 h

Question: What about the Vd [12] of the same compound?
Answer: 0.1 L/kg

Question: What about the Activity [13] of the same compound?
Answer: 5%

Question: And the pEC50 (Hepatitis C virus [2])?
Answer: 7.85

Question: What about the AUC [14] of the same compound?
Answer: 2.11 µM·h

Question: And the AUC [15]?
Answer: 2.92 µM·h

Question: And the Activity (Cytochrome P450 3A4)?
Answer: 2%

Question: With C[C@H]1CC[C@H](C2CCCC(=O)N2c2cc(-c3ccccc3)sc2C(=O)O)CC1 (some centres not stated) as the compound, how does the pIC50 [1] read?
Answer: 6.13

Question: What about the pEC50 (Hepatitis C virus [2]) of the same compound?
Answer: 4.94

Question: With C[C@H](O)C[C@H]1OC[C@@H](C2CCCCC2)N(c2cc(C#CC(C)(C)C)sc2C(=O)O)C1=O as the compound, how does the pIC50 [1] read?
Answer: 8.70

Question: What about the Activity [13] of the same compound?
Answer: 4%

Question: And the pEC50 (Hepatitis C virus [2])?
Answer: 7.52

Question: Which results are given for CC(C)(C)C#Cc1cc(N2C(=O)[C@@](C)(CCO)OC[C@H]2C2CCCCC2)c(C(=O)O)s1 (relative stereo)?
Answer: pIC50 [1]: 8.70; Activity [13]: 77%; pEC50 (Hepatitis C virus [2]): 8.52

Question: With CC(C)(C)C#Cc1cc(N2C(=O)CCC[C@H]2C2CCCCC2)c(C(=O)O)s1 as the compound, how does the pIC50 [1] read?
Answer: 8.00

Question: What about the Activity [13] of the same compound?
Answer: 141%

Question: What about the pEC50 (Hepatitis C virus [2]) of the same compound?
Answer: 7.92

Question: Which clearance [3] does the source give for C[C@@H](O)C[C@H]1OC[C@@H](C2CCCCC2)N(c2cc(C#CC(C)(C)C)sc2C(=O)O)C1=O here?
Answer: 7.7 mL/min/kg

Question: What about the Vd [4] of the same compound?
Answer: 3 L/kg

Question: And the pEC50 (Hepatitis C virus [16])?
Answer: 7.36

Question: What about the AUC [5] of the same compound?
Answer: 2.76 µM·h

Question: What about the pIC50 [1] of the same compound?
Answer: 8.52

Question: And the clearance [6]?
Answer: 14 mL/min/kg

Question: What about the bioavailability [7] of the same compound?
Answer: 43%

Question: And the half-life [8]?
Answer: 5.2 h

Question: And the pEC50 (Hepatitis C virus [17])?
Answer: 7.96

Question: And the bioavailability [9]?
Answer: 77%

Question: What about the AUC [10] of the same compound?
Answer: 1.45 µM·h

Question: And the half-life [11]?
Answer: 5 h

Question: And the Vd [12]?
Answer: 0.7 L/kg

Question: What about the Activity [13] of the same compound?
Answer: 9%

Question: What about the pEC50 (Hepatitis C virus [2]) of the same compound?
Answer: 8.10

Question: And the AUC [14]?
Answer: 10.6 µM·h

Question: What about the AUC [15] of the same compound?
Answer: 6.3 µM·h

Question: And the Activity (Cytochrome P450 3A4)?
Answer: 2%

Question: With CC(C)(C)C#Cc1cc(N2C(=O)[C@](C)(CCCO)OC[C@H]2C2CCCCC2)c(C(=O)O)s1 (relative stereo) as the compound, how does the pIC50 [1] read?
Answer: 8.40

Question: And the Activity [13]?
Answer: 8%

Question: What about the pEC50 (Hepatitis C virus [2]) of the same compound?
Answer: 7.60
